Reference: PubChem BioAssay (NCI)
Where “and” joins values, the source holds several entries; their conditions need not be identical. Equal entries are not always repeated.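 Exposure lasted 48 hours, with cells grown in 96-well plates and compounds tested at five concentrations. Here, GI50 denotes the concentration required for 50% inhibition of growth. TGI denotes the concentration required for complete inhibition of growth.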

What was measured:
Test in all cases: NCI-60 cell line screen, 48 h
[1] = test system: MCF7 breast
[2] = test system: A498 renal
[3] = test system: UO-31 renal
[4] = test system: CAKI-1 renal
[5] = test system: NCI-H226 lung
[6] = test system: EKVX NSCLC
[7] = test system: T-47D breast
[8] = test system: RXF 393 renal
[9] = test system: MDA-MB-231 breast
[10] = test system: 786-0 renal

Structure (SMILES)	TGI [1] [µM]	TGI [2]	TGI [3] [µM]	TGI [4] [µM]	TGI [5]	TGI [6]	TGI [7] [µM]	TGI [8]	TGI [9] [µM]	TGI [10] [µM]	GI50 [1] [µM]	GI50 [2] [µM]	GI50 [3] [µM]	GI50 [4] [µM]	GI50 [5] [µM]	GI50 [6] [µM]	GI50 [7] [µM]	GI50 [8] [µM]	GI50 [9] [µM]	GI50 [10] [µM]
O=C(O)C(Br)C(Br)c1ccccc1[N+](=O)[O-] (centres undefined)	> 100	> 100 µM	94.9	> 100	> 100 µM	> 100 µM	> 100	> 100 µM	> 100	> 100										
O=C(O)c1ccc(S(=O)(=O)N=Nc2c(O)[nH]c3ccccc23)cc1	> 100	> 100 µM	> 100	> 100	> 100 µM	> 100 µM	> 100	> 100 µM	> 100	> 100										
Cc1ccc2[nH]c(C(=O)NN3C(=O)CSC34CCCC(C)C4)c(-c3ccccc3)c2c1 (centres undefined)	38.5	36.3 µM	10.6	33.8	35.2 µM	58.8 µM	55.2	20.3 µM	34	39.3	15.4	17.5	0.0274	15.5	18.4	24.2	20.3	5.85	17.2	19.6
O=C(NCCN1CCOCC1)Nc1ccc(-c2cc3c(Nc4ccc(Oc5cccc(C(F)(F)F)c5)c(Cl)c4)ncnc3s2)cc1	3.27	7.79 µM	1.75	5.74	17.1 µM	8.61 µM	3.21	2.55 µM	2.54	1.6	1.11	2.04	0.801	1.5	3.18	2.27	1.07	0.653	1.07	0.67
Cc1ccccc1-n1c(/C=C\c2ccccn2)nc2ccccc2c1=O	58.7	70.6 µM	> 100	16.9	> 100 µM	> 100 µM	64.8	20 µM	59.2	64.4	10.1	9.47	7.51	3.32	28.8	23.7	5.99	4.33	4.69	20.6
COc1cccc2c1cc([N+](=O)[O-])c1c(C(=O)O)cc3c(c12)OCO3	> 100	32.9 µM and 83.4 µM	> 100	> 100	48.4 µM and > 78.3 µM	91.7 µM and > 100 µM	> 100	40.6 µM and > 56.9 µM	> 100	> 100	30.7	16	26.2	17.8	20	26.6	66.3	18	59.9	27.6
COC(=O)c1c2c(c(C)[n+]([O-])c1C)C(=O)C(NCc1cccc(OC)c1)=CC2=O	3.63	5.3 µM	9.25	10.3	13 µM	5.44 µM	5.47	5.2 µM	6.24	27.1	1.65	1.79	2.27	2.79	3.32	2.11	2.23	2.58	2.21	3.6
CCCCCCNC(=O)Oc1ccc(/C(=C(\C)c2ccccc2)c2ccc(OCCN3CCCCC3)cc2)cc1	3.64	21.6 µM	2.86	5.11	21.4 µM	18 µM	4.87	3.32 µM	4.96	3.12	0.0428	7.46	1.38	2.2	5.91	4.11	1.14	1.52	2.09	1.69
COc1ccc(NC(=O)c2sc3nc(C)c(C(O)c4ccc(OC)cc4)cc3c2N)cc1 (centres undefined)	> 50	39.1 µM	> 50	> 50	> 50 µM	> 50 µM	> 50	2.99 µM	> 50	> 50	0.196	0.156	2.85	0.803	3.54	3.13	10.5	0.411	2.06	3.35
COc1cc(-c2nn(C(=O)NS(=O)(=O)c3ccc(C)cc3)cc2-c2ccncc2)ccc1Cl	26.2	39.6 µM	16	26.9	14.8 µM	27.6 µM	31.2	12 µM	28.2	17.7	5.76	6.98	3.74	3.15	2.88	2.78	6.34	2.67	3.19	3.47
CCCCSCc1nc2nc(Cl)c(Cl)nc2[nH]1	68	60.6 µM		79.3	62.7 µM	> 100 µM	62.9	68.8 µM	79.2	69.3										
